Active and inactive are the calls of the source.

For one assay, the target named is Large T antigen (Simian virus 40, UniProt P03070). In kind it is functional, Betapolyomavirus macacae.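 Note: Confirmatory-stage PubChem screen for compounds that inhibit SV40 T antigen.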
Assay [1] addresses T1, Voltage-gated N-type calcium channel alpha-1B subunit/Amyloid beta A4 precursor protein-binding family A member 1 (Homo sapiens, UniProt Q00975+Q02410). In kind it is protein assay.
Assay [2] deals with Guanyl-specific ribonuclease T1 (Aspergillus oryzae (strain ATCC 42149 / RIB 40), UniProt P00651). The experiment in a line: RNase T1 inhibitors, dose response, counter-screen for TPT1 inhibitor project, biochemical, fluorescence polarization, 1536-well (AID 2167). Background: Counterscreens check selectivity or assay interference.
Guanyl-specific ribonuclease T1, sequence (P00651 whole entry): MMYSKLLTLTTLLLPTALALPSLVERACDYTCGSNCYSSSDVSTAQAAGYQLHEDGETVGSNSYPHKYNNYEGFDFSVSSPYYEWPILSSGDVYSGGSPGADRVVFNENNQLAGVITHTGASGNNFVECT
In assay [3] the target is Likely tRNA 2'-phosphotransferase (Candida albicans (strain SC5314 / ATCC MYA-2876) (Yeast), UniProt Q5A7N4). The experiment in a line: TPT1 tRNA phosphotransferase inhibitors, dose response, biochemical, fluorescence polarization (AID 2160). (Polarisation of emitted light reports the rotation of a fluorescent probe.)
Likely tRNA 2'-phosphotransferase, sequence (Q5A7N4 whole entry): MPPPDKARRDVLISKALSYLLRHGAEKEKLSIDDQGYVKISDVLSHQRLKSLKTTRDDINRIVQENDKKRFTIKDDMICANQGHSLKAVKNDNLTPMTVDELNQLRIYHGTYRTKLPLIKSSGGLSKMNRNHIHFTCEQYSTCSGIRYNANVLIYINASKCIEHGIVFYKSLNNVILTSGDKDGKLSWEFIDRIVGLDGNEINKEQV
Assay [4] has as its target T1, Voltage-gated N-type calcium channel alpha-1B subunit/Amyloid beta A4 precursor protein-binding family A member 1. Format: protein assay. This is another data set of the same source.
In assay [5] the target is T2, Eukaryotic translation initiation factor 2-alpha kinase 3 (Homo sapiens, UniProt Q9NZJ5). In words: Counterscreen assay for PERK inhibitors: Dose response cell-based high throughput screening assay to measure inhibition of PERK at 6 hours. [Related pubchem assays: 1522, 1416 ]. In kind it is functional.
T2 sequence (Q9NZJ5 whole entry): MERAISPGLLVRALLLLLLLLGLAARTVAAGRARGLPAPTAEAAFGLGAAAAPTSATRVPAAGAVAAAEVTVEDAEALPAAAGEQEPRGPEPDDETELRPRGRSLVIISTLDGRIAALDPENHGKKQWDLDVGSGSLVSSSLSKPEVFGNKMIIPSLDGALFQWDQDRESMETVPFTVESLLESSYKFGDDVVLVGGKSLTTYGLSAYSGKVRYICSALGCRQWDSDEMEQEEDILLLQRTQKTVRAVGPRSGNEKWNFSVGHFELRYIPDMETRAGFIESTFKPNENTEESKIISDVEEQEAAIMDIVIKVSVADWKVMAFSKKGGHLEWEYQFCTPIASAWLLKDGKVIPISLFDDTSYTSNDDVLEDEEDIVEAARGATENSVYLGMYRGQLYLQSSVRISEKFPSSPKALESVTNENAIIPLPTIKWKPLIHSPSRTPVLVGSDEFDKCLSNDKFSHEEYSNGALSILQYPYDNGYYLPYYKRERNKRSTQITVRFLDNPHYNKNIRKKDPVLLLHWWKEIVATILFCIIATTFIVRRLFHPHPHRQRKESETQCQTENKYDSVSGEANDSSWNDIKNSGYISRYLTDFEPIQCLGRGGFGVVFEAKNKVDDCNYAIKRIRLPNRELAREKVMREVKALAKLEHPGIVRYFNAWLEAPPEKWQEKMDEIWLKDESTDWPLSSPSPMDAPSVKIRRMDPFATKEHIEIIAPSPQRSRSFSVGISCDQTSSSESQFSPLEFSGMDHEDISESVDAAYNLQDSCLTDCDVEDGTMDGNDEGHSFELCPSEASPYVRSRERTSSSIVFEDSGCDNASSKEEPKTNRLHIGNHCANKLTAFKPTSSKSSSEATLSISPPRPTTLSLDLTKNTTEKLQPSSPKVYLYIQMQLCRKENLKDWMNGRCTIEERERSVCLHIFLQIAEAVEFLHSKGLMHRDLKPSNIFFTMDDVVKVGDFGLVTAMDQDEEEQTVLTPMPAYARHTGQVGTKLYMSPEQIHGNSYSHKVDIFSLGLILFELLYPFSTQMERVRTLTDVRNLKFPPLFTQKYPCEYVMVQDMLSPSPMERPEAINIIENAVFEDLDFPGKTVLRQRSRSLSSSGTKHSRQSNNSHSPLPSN
Assay [6] concerns the target T2, Eukaryotic translation initiation factor 2-alpha kinase 3. In words: Dose response cell-based high-throughput screening assay to measure PERK inhibition. [Related pubchem assays: 1416 ]. Format: functional.
The target in assay [7] is T3, Alkaline phosphatase, tissue-nonspecific isozyme (Homo sapiens, UniProt P05186).
T3 sequence (P05186 whole entry): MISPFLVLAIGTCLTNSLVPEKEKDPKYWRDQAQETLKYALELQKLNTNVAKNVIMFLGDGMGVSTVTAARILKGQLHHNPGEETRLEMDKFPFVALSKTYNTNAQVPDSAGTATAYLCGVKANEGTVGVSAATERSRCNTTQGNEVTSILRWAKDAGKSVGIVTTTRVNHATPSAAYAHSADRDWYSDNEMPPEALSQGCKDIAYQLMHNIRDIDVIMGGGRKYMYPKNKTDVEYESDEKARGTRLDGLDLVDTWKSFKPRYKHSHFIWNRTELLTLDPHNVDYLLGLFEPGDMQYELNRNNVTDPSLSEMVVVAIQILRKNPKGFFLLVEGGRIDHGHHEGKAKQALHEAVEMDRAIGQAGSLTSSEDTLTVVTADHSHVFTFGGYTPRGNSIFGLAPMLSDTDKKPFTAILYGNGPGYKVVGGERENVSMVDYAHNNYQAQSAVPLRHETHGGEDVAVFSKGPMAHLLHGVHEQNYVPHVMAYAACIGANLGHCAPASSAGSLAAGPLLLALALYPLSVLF

Assay [8] addresses T4, Histone-lysine N-methyltransferase NSD2 (Homo sapiens, UniProt O96028).
T4 sequence (O96028 whole entry): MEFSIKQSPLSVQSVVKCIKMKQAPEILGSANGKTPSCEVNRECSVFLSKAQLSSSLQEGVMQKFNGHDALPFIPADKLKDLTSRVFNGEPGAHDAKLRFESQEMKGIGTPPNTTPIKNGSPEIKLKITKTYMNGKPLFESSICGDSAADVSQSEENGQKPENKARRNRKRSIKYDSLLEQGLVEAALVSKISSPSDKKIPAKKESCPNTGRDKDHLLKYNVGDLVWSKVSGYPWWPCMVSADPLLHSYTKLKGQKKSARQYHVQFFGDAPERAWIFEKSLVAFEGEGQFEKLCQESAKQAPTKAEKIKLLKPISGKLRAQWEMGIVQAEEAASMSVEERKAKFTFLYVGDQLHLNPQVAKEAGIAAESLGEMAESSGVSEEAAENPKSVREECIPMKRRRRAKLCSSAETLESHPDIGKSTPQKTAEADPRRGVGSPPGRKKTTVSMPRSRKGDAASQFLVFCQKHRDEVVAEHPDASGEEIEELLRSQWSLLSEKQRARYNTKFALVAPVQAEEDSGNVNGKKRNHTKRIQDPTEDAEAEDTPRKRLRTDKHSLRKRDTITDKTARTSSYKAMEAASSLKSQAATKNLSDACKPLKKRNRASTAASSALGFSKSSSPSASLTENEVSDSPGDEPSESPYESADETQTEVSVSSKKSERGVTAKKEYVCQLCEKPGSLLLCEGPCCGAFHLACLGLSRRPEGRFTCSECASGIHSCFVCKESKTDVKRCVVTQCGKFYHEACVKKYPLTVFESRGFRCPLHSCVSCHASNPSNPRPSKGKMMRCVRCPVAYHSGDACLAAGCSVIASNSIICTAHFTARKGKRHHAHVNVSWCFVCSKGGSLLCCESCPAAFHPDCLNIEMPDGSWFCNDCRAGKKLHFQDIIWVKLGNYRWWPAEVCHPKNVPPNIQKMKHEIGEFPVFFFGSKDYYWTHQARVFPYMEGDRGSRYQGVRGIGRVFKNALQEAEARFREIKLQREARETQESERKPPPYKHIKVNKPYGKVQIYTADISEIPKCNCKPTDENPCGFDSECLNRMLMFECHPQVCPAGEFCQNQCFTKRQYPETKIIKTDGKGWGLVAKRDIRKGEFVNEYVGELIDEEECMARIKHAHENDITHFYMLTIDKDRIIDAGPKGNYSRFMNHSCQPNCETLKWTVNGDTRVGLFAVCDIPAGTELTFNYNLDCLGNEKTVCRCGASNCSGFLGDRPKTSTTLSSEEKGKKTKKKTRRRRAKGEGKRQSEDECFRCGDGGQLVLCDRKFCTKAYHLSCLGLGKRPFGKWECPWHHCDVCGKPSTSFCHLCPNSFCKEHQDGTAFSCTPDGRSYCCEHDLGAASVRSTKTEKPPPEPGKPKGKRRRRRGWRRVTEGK
In kind it is biochemical.

Assay [9] deals with Lysosomal acid glucosylceramidase (Homo sapiens, UniProt P04062). The experiment in a line: Dose response cell-based high throughput screening assay to identify enhancers of beta-glucosidase activity. [Related pubchem assays: 784 ]. In kind it is functional.
For another assay, the target named is Cytochrome P450 2D6 (Homo sapiens, UniProt P10635). In words: qHTS Assay for Inhibitors and Substrates of Cytochrome P450 2D6. [Related pubchem assays: 410 ]. Format: ADME. The settings on record: read-out: Potency.
For the next assay, the target named is Aspartyl aminopeptidase (Plasmodium falciparum 3D7, UniProt Q8I2J3).
The target in the next assay is Procathepsin L (Homo sapiens, UniProt P07711).
The nature of assay [10]: Luminescence Cell-Based Dose Confirmation HTS to Identify Inhibitors of Polyadenylation. Format: functional.
Assay [11] in a line: HeLa cell cytotoxicity, dose response, cytotoxicity control for MgcRacGAP inhibitor project (AID 624300). Format: functional.
Assay [12] is described as follows: polyadenylation inhibitors in yeast reporter, dose response, luminescence, S. cerevisiae SKY197-pL101 (AID 2525). Format: functional, cell-based.
Assay [13] has as its target T5, Rac GTPase-activating protein 1 (Homo sapiens, UniProt Q9H0H5).
T5 sequence (Q9H0H5 whole entry): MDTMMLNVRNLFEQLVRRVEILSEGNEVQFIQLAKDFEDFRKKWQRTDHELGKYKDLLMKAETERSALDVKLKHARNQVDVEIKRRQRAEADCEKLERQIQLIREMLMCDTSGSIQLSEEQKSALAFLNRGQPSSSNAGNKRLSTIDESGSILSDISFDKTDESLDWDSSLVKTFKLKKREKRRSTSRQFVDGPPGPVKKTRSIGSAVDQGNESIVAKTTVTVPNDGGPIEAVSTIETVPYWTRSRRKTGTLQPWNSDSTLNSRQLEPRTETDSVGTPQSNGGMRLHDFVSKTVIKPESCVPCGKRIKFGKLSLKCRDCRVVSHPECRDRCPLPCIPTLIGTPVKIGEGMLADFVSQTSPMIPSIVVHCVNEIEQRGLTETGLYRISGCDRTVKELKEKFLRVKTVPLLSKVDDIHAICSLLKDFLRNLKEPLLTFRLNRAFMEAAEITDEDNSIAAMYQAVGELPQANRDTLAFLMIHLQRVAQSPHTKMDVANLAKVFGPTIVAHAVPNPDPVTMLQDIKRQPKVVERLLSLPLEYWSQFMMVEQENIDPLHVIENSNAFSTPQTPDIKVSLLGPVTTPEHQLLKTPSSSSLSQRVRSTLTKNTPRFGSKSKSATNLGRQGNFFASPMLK
In words: MgcRacGAP GTPase-activating activity inhibitors, confirmation, biochemical, ADP Hunter fluorescence, primary and confirmatory (AID 624330). In kind it is functional.

The target of a further assay is Troponin, cardiac muscle (Homo sapiens, UniProt P19429+P45379+P63316). In words: Fluorescence-based biochemical high throughput dose response assay for activators of the calcium sensitivity of cardiac Regulated Thin Filaments (RTF). [Related pubchem assays (depositor defined):AID493008, AID493018, AID504382, AID504383]. In kind it is protein-complex assay.
In assay [14] the target is Polyadenylate-binding protein 1 (Homo sapiens, UniProt P11940). The experiment in a line: PABP poly(A) RNA binding inhibitors, primary screen, biochemical, fluorescence polarization, uHTS (AID 2014).
In assay [15] the target is Eukaryotic translation initiation factor 4H (Homo sapiens, UniProt Q15056). In words: human eIF4H binding inhibitors, primary screen, translation initiation inhibitor project, biochemical, uHTS, fluorescence polarization (AID 2012).
Assay [16] addresses DNA dC->dU-editing enzyme APOBEC-3A (Homo sapiens, UniProt P31941). In words: Dose Response confirmation of small molecule APOBEC3A DNA Deaminase Inhibitors via a fluorescence-based single-stranded DNA deaminase assay. [Related pubchem assays (depositor defined):AID493011, AID493024]. Format: functional.
The target of assay [17] is DNA dC->dU-editing enzyme APOBEC-3G (Homo sapiens, UniProt Q9HC16). In kind it is functional.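 Note: Dose-response counterscreen measuring inhibition of APOBEC3G DNA deaminase activity, run while confirming APOBEC3A inhibitors.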
Assay [18] concerns the target Peroxisome proliferator-activated receptor gamma/Nuclear receptor corepressor 2 (Homo sapiens, UniProt P37231+Q9Y618). In kind it is functional.
Assay [19] concerns the target Photoreceptor-specific nuclear receptor (Homo sapiens, UniProt Q9Y5X4). In kind it is functional.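 Note: potency for compounds that break the NR2E3 corepressor complex and count as activators.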
Assay [20] is described as follows: A Cell Based Secondary Assay To Explore Cytotoxicity of Compounds that Sensitize Mycobacterium Tuberculosis to Beta-Lactam Antibiotics. In kind it is functional.

T1 sequence (Q00975 whole entry): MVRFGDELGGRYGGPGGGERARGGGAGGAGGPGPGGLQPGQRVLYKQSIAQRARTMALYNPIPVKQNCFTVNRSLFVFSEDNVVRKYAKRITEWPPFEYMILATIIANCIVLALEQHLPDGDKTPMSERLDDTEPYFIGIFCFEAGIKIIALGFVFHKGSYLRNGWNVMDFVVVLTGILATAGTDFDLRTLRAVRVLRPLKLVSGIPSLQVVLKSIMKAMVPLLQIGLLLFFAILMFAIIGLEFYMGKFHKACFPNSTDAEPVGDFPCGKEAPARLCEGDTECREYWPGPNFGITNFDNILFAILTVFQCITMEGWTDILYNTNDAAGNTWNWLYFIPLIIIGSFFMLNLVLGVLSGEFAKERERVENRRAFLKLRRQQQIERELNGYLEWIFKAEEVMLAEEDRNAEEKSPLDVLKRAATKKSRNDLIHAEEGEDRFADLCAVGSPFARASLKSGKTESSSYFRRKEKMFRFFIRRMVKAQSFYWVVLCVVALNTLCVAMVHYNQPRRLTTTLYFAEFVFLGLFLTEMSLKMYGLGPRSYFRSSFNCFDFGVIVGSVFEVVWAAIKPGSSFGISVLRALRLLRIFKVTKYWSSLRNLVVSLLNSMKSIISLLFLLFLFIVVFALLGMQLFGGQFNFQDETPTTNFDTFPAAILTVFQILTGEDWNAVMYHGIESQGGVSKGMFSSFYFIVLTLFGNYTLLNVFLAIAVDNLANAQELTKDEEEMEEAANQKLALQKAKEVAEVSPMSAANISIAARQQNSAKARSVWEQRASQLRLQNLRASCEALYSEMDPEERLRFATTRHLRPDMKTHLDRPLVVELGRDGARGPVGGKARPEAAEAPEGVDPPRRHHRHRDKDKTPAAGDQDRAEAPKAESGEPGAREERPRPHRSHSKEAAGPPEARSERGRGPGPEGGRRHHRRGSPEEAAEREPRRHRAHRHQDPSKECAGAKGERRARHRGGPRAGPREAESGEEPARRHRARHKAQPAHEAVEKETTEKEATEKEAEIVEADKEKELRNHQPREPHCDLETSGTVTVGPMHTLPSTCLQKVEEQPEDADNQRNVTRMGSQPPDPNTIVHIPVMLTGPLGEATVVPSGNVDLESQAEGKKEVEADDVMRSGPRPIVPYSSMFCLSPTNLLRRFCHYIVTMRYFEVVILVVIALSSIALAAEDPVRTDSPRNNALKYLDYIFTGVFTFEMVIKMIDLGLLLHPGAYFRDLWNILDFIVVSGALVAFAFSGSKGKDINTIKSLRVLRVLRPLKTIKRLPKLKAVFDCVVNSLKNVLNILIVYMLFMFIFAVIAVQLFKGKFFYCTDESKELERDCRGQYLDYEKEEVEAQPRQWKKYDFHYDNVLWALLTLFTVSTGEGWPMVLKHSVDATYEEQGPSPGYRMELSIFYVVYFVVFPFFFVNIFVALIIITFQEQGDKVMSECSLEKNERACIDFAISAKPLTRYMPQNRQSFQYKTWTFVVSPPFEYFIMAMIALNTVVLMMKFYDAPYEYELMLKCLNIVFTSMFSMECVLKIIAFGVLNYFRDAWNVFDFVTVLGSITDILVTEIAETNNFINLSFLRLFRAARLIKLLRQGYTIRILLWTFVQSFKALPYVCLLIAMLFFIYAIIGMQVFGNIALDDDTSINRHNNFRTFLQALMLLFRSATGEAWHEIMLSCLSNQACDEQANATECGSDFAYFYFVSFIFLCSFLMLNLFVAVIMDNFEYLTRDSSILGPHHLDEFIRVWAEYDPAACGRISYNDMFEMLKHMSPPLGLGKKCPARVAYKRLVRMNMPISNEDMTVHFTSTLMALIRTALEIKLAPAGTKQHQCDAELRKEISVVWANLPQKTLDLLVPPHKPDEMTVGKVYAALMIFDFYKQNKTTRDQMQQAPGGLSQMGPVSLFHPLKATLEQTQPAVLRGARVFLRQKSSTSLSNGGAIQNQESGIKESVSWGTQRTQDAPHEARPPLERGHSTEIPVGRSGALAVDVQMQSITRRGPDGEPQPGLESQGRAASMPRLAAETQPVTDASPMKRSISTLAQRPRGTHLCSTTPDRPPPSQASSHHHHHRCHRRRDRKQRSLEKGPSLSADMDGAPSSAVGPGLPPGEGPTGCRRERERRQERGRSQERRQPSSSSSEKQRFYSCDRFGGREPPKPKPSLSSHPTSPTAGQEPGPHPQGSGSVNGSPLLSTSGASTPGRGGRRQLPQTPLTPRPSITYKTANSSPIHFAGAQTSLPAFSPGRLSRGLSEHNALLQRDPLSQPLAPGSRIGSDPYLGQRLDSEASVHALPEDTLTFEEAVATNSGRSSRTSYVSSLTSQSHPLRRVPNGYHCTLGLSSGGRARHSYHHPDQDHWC
T1 sequence (Q02410 whole entry): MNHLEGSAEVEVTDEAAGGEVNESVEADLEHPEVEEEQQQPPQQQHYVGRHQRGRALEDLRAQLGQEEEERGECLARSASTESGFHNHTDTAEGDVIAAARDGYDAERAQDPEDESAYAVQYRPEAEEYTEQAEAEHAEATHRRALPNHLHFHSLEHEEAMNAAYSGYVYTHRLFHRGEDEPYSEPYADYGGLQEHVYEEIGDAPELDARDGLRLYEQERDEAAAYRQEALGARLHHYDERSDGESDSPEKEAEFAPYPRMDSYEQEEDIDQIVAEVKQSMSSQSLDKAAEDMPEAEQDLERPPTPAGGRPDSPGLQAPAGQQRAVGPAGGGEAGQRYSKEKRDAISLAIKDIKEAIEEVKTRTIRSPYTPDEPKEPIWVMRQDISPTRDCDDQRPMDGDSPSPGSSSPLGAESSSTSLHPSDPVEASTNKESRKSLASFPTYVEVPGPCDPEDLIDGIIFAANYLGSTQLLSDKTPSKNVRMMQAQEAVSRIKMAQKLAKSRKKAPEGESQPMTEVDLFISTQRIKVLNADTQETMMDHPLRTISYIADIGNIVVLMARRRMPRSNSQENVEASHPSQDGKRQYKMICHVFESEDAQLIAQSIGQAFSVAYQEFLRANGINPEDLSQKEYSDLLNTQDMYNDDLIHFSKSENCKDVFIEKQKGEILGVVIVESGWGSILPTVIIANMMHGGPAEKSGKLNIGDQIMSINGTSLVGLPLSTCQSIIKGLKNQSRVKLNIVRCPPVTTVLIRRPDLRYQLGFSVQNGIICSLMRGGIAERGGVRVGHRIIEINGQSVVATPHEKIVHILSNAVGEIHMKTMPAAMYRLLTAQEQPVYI
DNA dC->dU-editing enzyme APOBEC-3A, sequence (P31941 whole entry): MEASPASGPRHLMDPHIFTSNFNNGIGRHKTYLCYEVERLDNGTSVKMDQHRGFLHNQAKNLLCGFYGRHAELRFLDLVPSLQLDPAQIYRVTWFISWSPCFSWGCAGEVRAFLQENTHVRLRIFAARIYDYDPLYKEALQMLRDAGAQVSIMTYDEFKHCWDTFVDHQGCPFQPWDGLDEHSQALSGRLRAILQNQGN

As for `CC1=C(C#N)C(=O)N(C2CCS(=O)(=O)C2)C(=O)/C1=C\c1ccco1` (stereo not given), the IC50 (in general, the concentration that inhibits the measured activity by half) is 7.93 µM (active) at Large T antigen; 4.68 µM (active) in [1]; > 55.7 µM (not active) in assay [2]; 0.142 µM (active) in assay [3]; > 56.8 µM (not active) in assay [4].

`CC(=O)c1ccc(S(=O)(=O)N2CCN(CC#N)CC2)cc1`: the half-maximal effective concentration (EC50) in assay [5] and in [6] was > 55.7 µM (not active) throughout.

With `Fc1ccccc1N1CC(c2ccccc2)C(c2cccs2)=N1` (stereo not given), in assay [7], the half-maximal effective concentration (EC50) (as a rule, the concentration that produces a half-maximal response) was > 100 µM (not active).

On to `CCN(CC)CCCNC(=O)c1cc(-c2cccc(Cl)c2)on1`, for which the AC50 in assay [8] is > 20 µM (inactive). Also, the EC50 in [9] was > 50 µM (not active).

Regarding `CC12C=C(/C=C/c3ccc(Br)cc3)C(C)(C1)C(c1ccc(Br)cc1)CC2=O` (stereo not given), the AC50 on Cytochrome P450 2D6 was 7.94 µM (inconclusive).

In the case of `O=C(Nn1cnnc1)c1csc2ccccc12`, the IC50 is 2.17 µM (active) on Aspartyl aminopeptidase and > 59.6 µM (not active) on Procathepsin L.

On to `CCOc1cc(/C=C2\N=C(SC(C)C(N)=O)N(c3ccc(OC(F)F)cc3)C2=O)ccc1O` (stereo not given), for which the 50% effective concentration (EC50) in assay [10] is 10.7 µM (active); in [12], 19.4 µM (active); at Troponin, cardiac muscle, 8.42 µM (active). Also, the half-maximal cytotoxic concentration (CC50) (as a rule, the concentration that lowers cell viability or growth by half) in assay [11] is 51.2 µM (active). In assay [13], the half-inhibitory concentration (IC50) was 91.2 µM (active).

Take `COCCN1C(NCCCOC(C)C)=N[C@@H](c2ccccc2)C(C(=O)OC)=C1C`: the concentration for half-maximal inhibition (IC50) in assay [14] was 8.01 µM (active); in assay [15], > 100 µM (inactive); in assay [16], 5.67 µM (active); in assay [17] it was 4.32 µM (active).

Take `COc1cccc2cc(C(=O)C3=C(O)C(=O)N(CCN4CCOCC4)C3c3cccs3)oc12` (stereo not given): the IC50 is recorded as 13.7 µM (not active) in assay [18] and > 39.8 µM (not active) in assay [19].

Turning to `CCOc1ccccc1C(=O)Nc1cccc(-c2ccc3nncn3n2)c1`, the CC50 in assay [20] was > 40 µM (active).

For the origin of these results see ChEMBL document CHEMBL1201862, “PubChem BioAssay data set” (2004).
